Assay results: US8377489B2, “Banana treatments” (Rohm and Haas Company, priority 2008, dated 2013)

System: Banana fruit
Experiment: Ripening of bananas after 1-MCP dip of varied duration and ethylene exposure (Comparative Example 1)
Format: in vivo, Musa
Conditions: 20 microgram 1-MCP per liter with 0.6 ml/l NuFilm 17; for peel colour after 12 days: 12 days after exposure to ethylene
From the text: The following Examples, the color of banana peels is rated according to a seven stage rating scale, published by Chiquita Brands International, Inc. (http://www.chiquita.com/chiquita/Discover/cbripen.asp): stage 1 (dark green); stage 2 (all light green); stage 3 (more green than yellow); stage 4 (more yellow than green); stage 5 (green tips and necks); stage 6 (all yellow; maybe light green necks, no green tips); stage 7 (yellow flecked with brown). Consumers generally prefer to eat bananas in stage 5 or stage 6.
Banana fruit with an age of 12 weeks, grown and treated in Costa Rica. The bananas were dipped (not sprayed). The solution of every 1-MCP treatment included 0.6 ml/l NuFilm 17® 96% (elastomer-forming additive, Miller Chemical and Fertilizer Co.). Control sample had no dip. Other samples were dipped in water solution in which powdered encapsulation complex of 1-MCP in alpha-cyclodextrin was added to water to give concentration of 20 microgram 1-MCP per liter. Bananas were dipped for zero time (in and out), 5 minutes, or 20 minutes.
After 1-MCP treatment, fruit were allowed to dry on racks after treatments before being repacked in the boxes. The boxes were stored at 14° C. for 7 days. The boxes were conditioned at 20-21° C. for 6 hours before being treated with a continuous stream of 100 microliter per liter ethylene in a treatment chamber at 20° C. by 24 hours. After ethylene treatment the boxes were kept at ambient conditions (20° C. and 95% RH). Bananas were inspected at 5, 7, 10, and 12 days after exposure to ethylene.
Complete randomized design was used, with 4 treatments and 2 boxes per treatment. Clusters from each treatment were evaluated every two days after ethylene treatment.

Structure (SMILES): CC1=CC1 [Treatment 1-MCP, 1-methylcyclopropene]
- ripening (dipped for 5 minutes): did not ripen normally
- peel colour after 12 days (dipped for 5 minutes): remained green
- ripening (dipped for 20 minutes): did not ripen normally
- peel colour after 12 days (dipped for 20 minutes): remained green
- difference in ripening versus control bananas (dipped in and out quickly (zero time)): No significant difference
